Assays:
Type in all cases: in vivo
Thrips tabaci = Thrips tabaci (Onion thrips) leaf disc test; conditions: foliar, 168 h, 200 ppm sprayed on sunflower leaf discs, population of mixed ages, 7 days, mortality
Experimental: Thrips tabaci (Onion thrips): Sunflower leaf discs were placed on agar in a 24-well microtiter plate and sprayed with test solutions at an application rate of 200 ppm. […] After an incubation period of 7 days, samples were checked for mortality.

Heliothis virescens = Heliothis virescens (Tobacco budworm) egg/artificial diet test; conditions: 96 h, 200 ppm (concentration in well 18 ppm), eggs on artificial diet, 4 days, egg mortality, larval mortality, growth regulation
Experimental: Heliothis virescens (Tobacco budworm): Eggs (0-24 h old) were placed in 24-well microtiter plate on artificial diet and treated with test solutions at an application rate of 200 ppm (concentration in well 18 ppm) by pipetting. After an incubation period of 4 days, samples were checked for egg mortality, larval mortality, and growth regulation.

Tetranychus urticae = Tetranychus urticae (Two-spotted spider mite) leaf disc test; conditions: foliar, 192 h, 200 ppm sprayed on bean leaf discs, mite populations of mixed ages, 8 days, egg, larval and adult mortality
Description: Tetranychus urticae (Two-spotted spider mite): Bean leaf discs on agar in 24-well microtiter plates were sprayed with test solutions at an application rate of 200 ppm. After drying, the leaf discs are infested with mite populations of mixed ages. 8 days later, discs are checked for egg mortality, larval mortality, and adult mortality.

Plutella xylostella = Plutella xylostella (Diamond back moth) artificial diet test; conditions: 144 h, 200 ppm (concentration in well 18 ppm), L2 larvae, 6 days, larval mortality and growth regulation
Experimental: (§1) Plutella xylostella (Diamond back moth): 24-well microtiter plate (MTP) with artificial diet was treated with test solutions at an application rate of 200 ppm (concentration in well 18 ppm) by pipetting. After drying, the MTP's were infested with L2 larvae (7-12 per well). After an incubation period of 6 days, samples were checked for larval mortality and growth regulation.

Diabrotica balteata = Diabrotica balteata (Corn root worm) artificial diet test; conditions: 120 h, 200 ppm (concentration in well 18 ppm), L2 larvae, 5 days, larval mortality and growth regulation
Experimental: as §1, with “Diabrotica balteata (Corn root worm): A” for “Plutella xylostella (Diamond back moth):”, “(6-10” for “(7-12”, “5” for “6”

Myzus persicae = Myzus persicae (Green peach aphid) leaf disc test; conditions: foliar, 144 h, 200 ppm sprayed on sunflower leaf discs, aphid population of mixed ages, 6 DAT, mortality
Experimental: Myzus persicae (Green peach aphid): Sunflower leaf discs were placed on agar in a 24-well microtiter plate and sprayed with test solutions at an application rate of 200 ppm. After drying, the leaf discs were infested with an aphid population of mixed ages. After an incubation period of 6 DAT, samples were checked for mortality.

Spodoptera littoralis = Spodoptera littoralis (Egyptian cotton leafworm) leaf disc test; conditions: foliar, 72 h, 200 ppm sprayed on cotton leaf discs, L1 larvae, mortality, feeding behavior, growth regulation 3 DAT
Description: Spodoptera littoralis (Egyptian cotton leafworm): Cotton leaf discs were placed on agar in a 24-well microtiter plate and sprayed with test solutions at an application rate of 200 ppm. After drying, the leaf discs were infested with 5 L1 larvae. The samples were checked for mortality, feeding behavior, and growth regulation 3 days after treatment (DAT).

Measured: pest or weed control at 200 ppm

CCN(C(=O)c1ccncc1)c1cccc(C(=O)Nc2c(Cl)cc(C(F)(C(F)(F)F)C(F)(F)F)cc2Br)c1F [Compound 1, N′-[3-[[2-bromo-6-chloro-4-[1,1,1,2,3,3,3-heptafluoro-prop-2-yl]phenyl]carbamoyl]-2-fluoro-phenyl]-N-ethyl-pyridine-4-carboxamide]
≥ 80%: all assays above

CCN(C(=O)c1cc[n+]([O-])cc1)c1cccc(C(=O)Nc2c(Cl)cc(C(F)(C(F)(F)F)C(F)(F)F)cc2Br)c1F [Compound 2, N′-[3-[[2-bromo-6-chloro-4-[1,1,1,2,3,3,3-heptafluoro-prop-2-yl]phenyl]carbamoyl]-2-fluoro-phenyl]-N-ethyl-1-oxido-pyridin-1-ium-4-carboxamide]
≥ 80%: all assays above

CN(C(=O)c1ccncc1)c1cccc(C(=O)Nc2c(Cl)cc(C(F)(C(F)(F)F)C(F)(F)F)cc2Br)c1F [Compound 3]
not listed: Heliothis virescens
≥ 80%: all other assays above

CCc1cc(C(F)(C(F)(F)F)C(F)(F)F)cc(CC)c1NC(=O)c1cccc(N(CC)C(=O)c2ccncc2)c1F [Compound 4]
not listed: Heliothis virescens
≥ 80%: all other assays above

CCc1cc(C(F)(C(F)(F)F)C(F)(F)F)cc(CC)c1NC(=O)c1cccc(N(CC)C(=O)c2cc[n+]([O-])cc2)c1F [Compound 5]
not listed: Heliothis virescens | Spodoptera littoralis
≥ 80%: all other assays above

CCN(C(=O)c1ccncc1)c1cccc(C(=O)Nc2c(Br)cc(C(F)(C(F)(F)F)C(F)(F)F)cc2Br)c1F [Compound 6]
≥ 80%: all assays above

CCN(C(=O)c1ccncc1)c1cccc(C(=O)Nc2c(Br)cc(C(F)(C(F)(F)F)C(F)(F)F)cc2OC(F)F)c1F [Compound 7]
≥ 80%: all assays above

CN(C(=O)c1ccncc1)c1cccc(C(=O)Nc2c(Br)cc(C(F)(C(F)(F)F)C(F)(F)F)cc2Br)c1F [Compound 8]
≥ 80%: all assays above

CN(C(=O)c1cc[n+]([O-])cc1)c1cccc(C(=O)Nc2c(Br)cc(C(F)(C(F)(F)F)C(F)(F)F)cc2Br)c1F [Compound 9]
≥ 80%: all assays above

CN(C(=O)c1ccncc1)c1cccc(C(=O)Nc2c(Cl)cc(C(F)(C(F)(F)F)C(F)(F)F)cc2Cl)c1F [Compound 10]
≥ 80%: all assays above

CCN(C(=O)c1ccncc1)c1cccc(C(=O)Nc2c(Cl)cc(C(F)(C(F)(F)F)C(F)(F)F)cc2Cl)c1F [Compound 11]
≥ 80%: all assays above

Cc1cc(C(F)(C(F)(F)F)C(F)(F)F)cc(Cl)c1NC(=O)c1cccc(N(C)C(=O)c2ccncc2)c1F [Compound 12]
≥ 80%: all assays above

CCc1cc(C(F)(C(F)(F)F)C(F)(F)F)cc(Cl)c1NC(=O)c1cccc(N(CC)C(=O)c2ccncc2)c1F [Compound 13]
≥ 80%: all assays above

CCN(C(=O)c1ccncc1)c1cccc(C(=O)Nc2c(C)cc(C(F)(C(F)(F)F)C(F)(F)F)cc2Cl)c1F [Compound 14]
≥ 80%: all assays above

CCN(C(=O)c1ccncc1)c1cccc(C(=O)Nc2c(Br)cc(C(F)(C(F)(F)F)C(F)(F)F)cc2C2CC2)c1F [Compound 15]
≥ 80%: all assays above

CCN(C(=O)c1cc[n+]([O-])cc1)c1cccc(C(=O)Nc2c(Br)cc(C(F)(C(F)(F)F)C(F)(F)F)cc2C2CC2)c1F [Compound 16]
≥ 80%: all assays above

CCN(C(=O)c1cc[n+]([O-])cc1)c1cccc(C(=O)Nc2c(Br)cc(C(F)(C(F)(F)F)C(F)(F)F)cc2OC(F)F)c1F [Compound 17]
≥ 80%: all assays above

CCN(C(=O)c1ccncc1)c1cccc(C(=O)Nc2c(Cl)cc(C(F)(C(F)(F)F)C(F)(F)F)cc2OC(F)F)c1F [Compound 18]
not listed: Heliothis virescens
≥ 80%: all other assays above

CCN(C(=O)c1ccncc1)c1cccc(C(=O)Nc2c(C)cc(C(F)(C(F)(F)F)C(F)(F)F)cc2OC(F)F)c1F [Compound 19]
not listed: Heliothis virescens
≥ 80%: all other assays above

Source: patent publication US9635853B2, “Insecticidal compounds” (Syngenta Participations AG, priority 2013, dated 2017)
